Test results reported in US4864023A, “Pyrido(3,2,1-IJ)-1,3,4-benzoxadiazine derivatives” (priority 1988, dated 1989).
Converted amounts (≈) assume the structure as drawn.

Assays:
[1] = system: Staphylococcus aureus Smith; assay: in vitro antibacterial activity, standard agar dilution method; format: cell-based; conditions: Staphylococcus aureus Smith; aerobic; agar dilution; read-out: minimum inhibitory concentration (MIC)
[2] = system: Staphylococcus epidermidis NR 2942; assay: as above; format: cell-based; conditions: NR2942, aerobic, read-out: minimum inhibitory concentration (MIC)
[3] = system: Enterococcus faecalis NR 2943; assay: as above; format: cell-based; conditions: NR2943, aerobic, read-out: minimum inhibitory concentration (MIC)
[4] = system: Citrobacter freundii IFO 12681; assay: as above; format: cell-based; conditions: IFO12681, aerobic, read-out: minimum inhibitory concentration (MIC)
[5] = system: Klebsiella pneumoniae FDA PCI 602; assay: as above; format: cell-based; conditions: FDAPCI602, aerobic, read-out: minimum inhibitory concentration (MIC)
[6] = system: Proteus vulgaris OX19 ATCC 6898; assay: as above; format: cell-based; conditions: ATCC6898, aerobic, read-out: minimum inhibitory concentration (MIC)
[7] = system: Pseudomonas aeruginosa A3; assay: as above; format: cell-based; conditions: aerobic, read-out: minimum inhibitory concentration (MIC)
[8] = system: Serratia marcescens IFO 12648; assay: as above; format: cell-based; conditions: IFO12648, aerobic, read-out: minimum inhibitory concentration (MIC)
[9] = system: Bacteroides fragilis NR 2579; assay: as above; format: cell-based; conditions: NR2579, anaerobic, read-out: minimum inhibitory concentration (MIC)
[10] = system: Bifidobacterium adolescentis ATCC 15703; assay: as above; format: cell-based; conditions: ATCC15703, anaerobic, read-out: minimum inhibitory concentration (MIC)
[11] = system: Clostridium perfringens NR 2612; assay: microbe, parasite or virus in culture; format: cell-based; conditions: NR2612, read-out: minimum inhibitory concentration (MIC)
[12] = system: Clostridium moniliforme ATCC 25546; assay: in vitro antibacterial activity, standard agar dilution method; format: cell-based; conditions: ATCC25546, anaerobic, read-out: minimum inhibitory concentration (MIC)
[13] = system: Fusobacterium varium ATCC 8501; assay: as above; format: cell-based; conditions: ATCC8501, anaerobic, read-out: minimum inhibitory concentration (MIC)
[14] = system: Pseudomonas aeruginosa 4au542; assay: in vivo therapeutic efficacy, lethal systemic infection in mice; conditions: po, 120 h, P. aeruginosa 4au542 i.p. infection, ICR mice, p.o. at time of injection, mortality 5 days, read-out: 50% effective dose (ED50)
Method: The in vivo antibacterial activities of pyrido[3,2,1-ij]-1,3,4-benzoxadiazine derivatives prepared by Example 5, Example 30, Example 65 and Example 66 as mentioned below were tested against lethal infection of Escherichia coli ML4707, Pseudomonas aeruginosa 4au542 and Streptococcus pneumoniae 6-001. ICR mice weighing about 20 g were infected by intraperitoneal injection of a corresponding bacterial suspension. The test compounds were administered orally or subcutaneously at the time of injection. […] The respective 50% effective dose (ED50, mg/kg) which protects 50% of the animals from death caused by infection, is shown in Table 3.

Row | SMILES | MIC [1] | MIC [2] | MIC [3] | MIC [4] | MIC [5] | MIC [6] | MIC [7] | MIC [8] | MIC [9] | MIC [10] | MIC [11] | MIC [12] | MIC [13] | ED50 [14]
1 | CN1CCN(c2c(F)cc3c(=O)c(C(=O)O)cn4c3c2OCN4C)CC1 [Example 5, 9-fluoro-3-methyl-10-(4-methyl-1-piperazinyl)-7-oxo-2,3-dihydro-7H-pyrido[3,2,1-ij]-1,3,4-benzoxadiazine-6-carboxylic acid] | 0.2 µg/mL (≈ 0.552 µM) | 0.39 µg/mL (≈ 1.08 µM) | 3.13 µg/mL (≈ 8.64 µM) | 0.013 µg/mL (≈ 0.0359 µM) | 0.1 µg/mL (≈ 0.276 µM) | 0.013 µg/mL (≈ 0.0359 µM) | 0.2 µg/mL (≈ 0.552 µM) | 0.1 µg/mL (≈ 0.276 µM) | 3.13 µg/mL (≈ 8.64 µM) | 0.39 µg/mL (≈ 1.08 µM) | 0.39 µg/mL (≈ 1.08 µM) | 0.78 µg/mL (≈ 2.15 µM) | 12.5 µg/mL (≈ 34.5 µM) | 13.4 mg/kg
2 | CN1COc2c(N3CCC(N)C3)c(F)cc3c(=O)c(C(=O)O)cn1c23 (stereo not drawn) [Example 30, 10-(3-amino-1-pyrrolidinyl)-9-fluoro-3-methyl-7-oxo-2,3-dihydro-7H-pyrido[3,2,1-ij]-1,3,4-benzoxadiazine-6-carboxylic acid] | 0.05 µg/mL (≈ 0.144 µM) | 0.2 µg/mL (≈ 0.574 µM) | 3.13 µg/mL (≈ 8.99 µM) | 0.013 µg/mL (≈ 0.0373 µM) | 0.1 µg/mL (≈ 0.287 µM) | 0.0065 µg/mL (≈ 0.0187 µM) | 0.05 µg/mL (≈ 0.144 µM) | 0.05 µg/mL (≈ 0.144 µM) | 1.56 µg/mL (≈ 4.48 µM) | 0.1 µg/mL (≈ 0.287 µM) | 0.1 µg/mL (≈ 0.287 µM) | 0.1 µg/mL (≈ 0.287 µM) | – | 57 mg/kg
